We go through eight compounds from patent publication US4117151A, “Therapeutic sulfonamides” (priority 1976, dated 1978).

Structures can show the parent of a compound that is named as a salt. Some results are limits rather than exact numbers.

For one data set, the system named is myocardium. The conditions noted are these: background; cited from earlier work.
Data set [1] concerns blood-flow to the myocardium. In words: arterial coronary blood-flow (blood-flow to the myocardium). The data set is classed as in vivo, dog. The conditions noted are these: 10 mg/kg intravenous. The protocol:
(1) The capability of Compound No. 7 of increasing the blood-flow to the myocardium and thus stepping up the supply of oxygen to this muscle was determined in accordance with the technique described by R. CHARLIER and J. BAUTHIER in Arzneimittel Forschung "Drug Research" 23, 1305-1311 (1973).
Seven experiments were carried out on seven dogs, using a intravenous injection of 10 mg/kg of Compound No. 7. […] The increase in blood-flow was regular and the return to the control values took place progressively within twenty minutes.

The next data set relates to cardiac frequency. In words: cardiac frequency, 60 minutes experiment. The data set is classed as in vivo. The note with it: dog, 10 mg/kg intravenous, during 60 minutes. The protocol:
(§1) The same experimental conditions as above were observed and the following parameters were measured: […]

In another data set the test system is rats. In words: acute toxicity in rats. The note with it: single administration, 12 days observation. The data set is classed as in vivo. The protocol:
(§2) Finally, acute toxicity tests were carried out on rats and mice with Compound No. 7 and on rats with Compounds Nos. 13 and 14, the animals being kept under observation for 12 days following one single administration.

A further data set is described as follows: acute toxicity in rats. The data set is classed as in vivo. The conditions noted are these: rat, in vivo, single administration, 12 days observation. The protocol: as §2
The next data set has as its system stroke volume. In words: stroke volume (cardiac output divided by heart-beats per minute). The data set is classed as in vivo. The note with it: dog, 10 mg/kg intravenous; for Stroke Volume: initial value 100%. The protocol:
The same experimental conditions as above were observed and the following parameters were measured:
Thus, in order to determine the effect of any particular substance on stroke volume, it is sufficient to divide cardiac output by the number of heart-beats per minute.

For a further data set, the system named is cardiac output. Description: cardiac output. The data set is classed as in vivo. The note with it: dog, 10 mg/kg intravenous. The protocol: as §1
A further data set deals with mice. Description: acute toxicity in mice. The data set is classed as in vivo. The conditions noted are these: single administration, 12 days observation. The protocol: as §2
A further data set is described as follows: acute toxicity in mice. The data set is classed as in vivo. The note with it: mouse, in vivo, single administration, 12 days observation. The protocol: as §2
Data set [2] relates to oxygen consumption of the myocardium. In words: oxygen consumption of the myocardium (rate-pressure product). The data set is classed as in vivo. The note with it: anaesthetized dog, 10 mg/kg intravenous, 100 before administration. The protocol: This comparative trial aimed at determining the respective capabilities of the two substances to reduce the oxygen consumption of the myocardium. This property was measured by the indirect method known as the "rate-pressure product" which is a widely used and accurate haemodynamic index of myocardial oxygen consumption.
This method requires two cardiovascular parameters to be measured simultaneously, namely the mean aortic systolic blood-pressure and the heart-rate.
The "rate-pressure product" is obtained by multiplying the number of heart beats per minute by the mean aortic systolic blood-pressure. This provides an index of the total amount of oxygen used by the myocardium over a period of one minute. As it thus represents an accurate indication of the oxygen consumption of the myocardium, any lowering of the "rate-pressure product" indicates a corresponding drop in the oxygen consumption of the myocardium.
These tests were carried out on dogs which had been previously anaesthetized with sodium pentobarbital (30 mg/kg by intravenous route).
In both cases, the injection of 10 mg/kg took 2 minutes to administer.

Regarding `CC(C)NCC(O)COc1cccc2ccccc12` (racemic) [prapranolol], in the data set with myocardium, the anti-adrenergic effect result was “exert an anti-adrenergic effect”, the cardiac frequency entry is given as “considerably reduce cardiac frequency”, the cardiac functioning result is on record as “depress cardiac functioning” and the “oxygen requirements of the myocardium” value was “diminish the oxygen requirements of the myocardium”. Moreover, in the data set with myocardium, the “supply of oxygen to the myocardium” value is recorded as “lower the supply of oxygen to the myocardium”.
As for `CCCCc1oc2ccccc2c1C(=O)c1ccc(N(CCN(C)C)S(=O)(=O)c2ccc(C)cc2)cc1` [Compound 7, 2-n-butyl-3-[N-(2-dimethylaminoethyl)-N-(4-methyl-benzenesulfonyl)-4-amino-benzoyl]-benzofuran], the “return of blood-flow to the control values” in data set [1] (dog, hydrochloride) was “twenty”. Further, in data set [1] (dog, conclusion in words), the “supply of oxygen to the myocardium” value is “increases to a very marked degree the supply of oxygen to the myocardium”. Further, in data set [1] (seven dogs, after 3 minutes, hydrochloride), the “maximal increase in blood-flow to the myocardium” value was “about 94%”. In addition, the cardiac frequency entry with cardiac frequency is “dropped to a highly significant degree during 60 minutes”. Further, the LD0 worked out at 800 mg/kg in the data set with rats (intragastric), 160 mg/kg with rats (intraperitoneal), 550 mg/kg in the data set with mice (intragastric) and 50 mg/kg in the data set with mice (intraperitoneal). Moreover, the LD95 is 2400 mg/kg with rats (intragastric), 1400 mg/kg with rats (intraperitoneal), 5000 mg/kg with mice (intragastric) and 900 mg/kg in the data set with mice (intraperitoneal). For the same compound, the LD50 at 288 h in the data set “acute toxicity in rats” (ip, intraperitoneal) stood at 600 mg/kg; in “acute toxicity in rats” (po, intragastric), 1600 mg/kg; in the data set “acute toxicity in mice” (ip, intraperitoneal), 275 mg/kg; in the data set “acute toxicity in mice” (po, intragastric), 2100 mg/kg. In addition, the “increase in stroke volume” value in the data set with stroke volume (during the first 5 minutes) is “above 100%”. The “Stroke Volume” value with stroke volume (2.5 min) was determined as 213%; with stroke volume (5 min), 200%; with stroke volume (10 min), 172%; with stroke volume (15 min), 152%; in the data set on stroke volume (20 min), 143%; in the data set on stroke volume (25 min) it was 136%. The “Stroke Volume” value in the data set on stroke volume (30 min) is given as 137%; in the data set on stroke volume (35 min) it was 138%; with stroke volume (40 min), 127%; in the data set on stroke volume (45 min) it was 127%; in the data set on stroke volume (50 min), 130%; with stroke volume (55 min), 120%. For the same compound, the “Stroke Volume” value in the data set with stroke volume (60 min) came to 117%. Besides, in the data set with stroke volume (conclusion in words), the “performance of the cardiac muscle” value is “does not depress the performance of the cardiac muscle, and even stimulates this extremely important factor of cardiac functioning”. In addition, the “return of cardiac output to the control value” with cardiac output was no more than 20 min. Besides, the “increase in cardiac output” value amounted to 70% in the data set with cardiac output (after 2.5 minutes) and 50% in the data set with cardiac output (after 5 minutes). The “Oxygen Consumption (rate-pressure product)” value (from here on “Oxygen Consumption”) in data set [2] (2.5 minutes after) is 54.4; in data set [2] (5 minutes after), 57.8; in data set [2] (10 minutes after), 63.5; in data set [2] (15 minutes after), 64.8; in data set [2] (20 minutes after) it was 64.8; in data set [2] (25 minutes after), 65.2. For the same compound, the “Oxygen Consumption” value in [2] (30 minutes after) is 65.6; in data set [2] (35 minutes after), 66.0; in data set [2] (40 minutes after), 66.8; in [2] (45 minutes after) it was 67.2; in data set [2] (50 minutes after), 67.6; in data set [2] (55 minutes after), 68.9. Besides, in data set [2] (60 minutes after), the “Oxygen Consumption” value came out at 68.9.
In the data set with rats (intraperitoneal), `CCCCc1oc2ccccc2c1C(=O)c1ccc(N(CCCN(CCC)CCC)S(=O)(=O)c2ccc([N+](=O)[O-])cc2)cc1` [Compound 13, 2-n-butyl-3-[N-(3-di-n-propylaminopropyl)-N-(4-nitro-benzenesulfonyl)-4-amino-benzoyl]-benzofuran] displayed an LD0 of 180 mg/kg and an LD95 of 3000 mg/kg. In “acute toxicity in rats” (ip, intraperitoneal), this compound gave a 50% lethal dose (LD50) at 288 h of 1000 mg/kg.
In the data set on rats (intraperitoneal), `CCCCc1oc2ccccc2c1C(=O)c1ccc(N(CCCN(CCCC)CCCC)S(=O)(=O)c2ccc(OC)cc2)cc1` [Compound 14, 2-n-butyl-3-[N-(3-di-n-butylaminopropyl)-N-(4-methoxy-benzenesulfonyl)-4-amino-benzoyl]-benzofuran] came in with an LD0 of 200 mg/kg and an LD95 of 3000 mg/kg. The compound also yielded an LD50 at 288 h in “acute toxicity in rats” (ip, intraperitoneal) of 1000 mg/kg.
Regarding `OCCN(CCO)c1nc(N2CCCCC2)c2nc(N(CCO)CCO)nc(N3CCCCC3)c2n1` [dipyridamole], in the data set with myocardium, the anti-adrenergic effect entry is on record as “do not inhibit the cardio-vascular reactions to adrenergic stimulants”, the cardiac functioning result is “do not depress the cardiac function”, the “oxygen requirements of the myocardium” value is reported as “do not reduce the oxygen requirements of the myocardium” and the “supply of oxygen to the myocardium” value is on record as “increase the supply of oxygen to the myocardium”.
Turning to `C1CCC(C(CC2CCCCN2)C2CCCCC2)CC1` (stereo not shown) [perhexiline maleate], in the data set with myocardium, the anti-adrenergic effect result was “does not possess any anti-adrenergic properties”, the cardiac frequency result is “diminishing cardiac frequency”, the cardiac functioning result is given as “does not appear to exert a depressant effect upon cardiac functioning” and the “oxygen requirements of the myocardium” value is reported as “reducing the oxygen requirements of the myocardium”. The “supply of oxygen to the myocardium” value in the data set on myocardium is “increasing the supply of oxygen to the myocardium”.
As for `CC(=O)Nc1ccc(OCC(O)CNC(C)C)cc1` (stereo not shown) [practolol], in the data set on myocardium, the anti-adrenergic effect entry was “exert an anti-adrenergic effect”, the cardiac frequency result is listed as “considerably reduce cardiac frequency”, the cardiac functioning result is given as “depress cardiac functioning” and the “oxygen requirements of the myocardium” value is recorded as “diminish the oxygen requirements of the myocardium”. Moreover, in the data set on myocardium, the “supply of oxygen to the myocardium” value was “lower the supply of oxygen to the myocardium”.
`CC(Cc1ccccc1)NCCC(c1ccccc1)c1ccccc1` (stereo not shown) [prenylamine]: in the data set with myocardium, the anti-adrenergic effect result is recorded as “do not inhibit the cardio-vascular reactions to adrenergic stimulants”, the cardiac functioning result is “do not depress the cardiac function”, the “oxygen requirements of the myocardium” value is given as “do not reduce the oxygen requirements of the myocardium” and the “supply of oxygen to the myocardium” value is “increase the supply of oxygen to the myocardium”.
